{
  "source": "patent US10844062B2",
  "about": "“Pyridine derivative inhibiting RAF kinase and vascular endothelial growth factor receptor, method for preparing same, pharmaceutical composition containing same, and use thereof” (SAMJIN PHARMACEUTICAL CO., LTD., priority 2016, dated 2020)",
  "data": [
    {"tested_on": "LS513 KRAS G12V (colon)", "assay": "MTT assay", "assay_type": "cell-based", "conditions": "Homo sapiens, LS-513, 72 h, Table 4; 3 days incubation; read-out: MTT assay IC50 KRAS mutant (Colon) LS513 KRAS G12V", "description": "MTT assay is frequently used for the purpose of primary screening for the sensitivity of anticancer agents and to examine cytotoxicity. When cancer cells are treated with varying concentrations of any anticancer agent for a predetermined time to induce death of the cells and are then treated with MTT, and when the formation of formazan is measured, the concentration of the anticancer agent, at which about 50% of the cells survive, can be determined. This concentration value is called IC50. IC50 values differ between drugs, and thus can be characteristic of the drugs. Using this method, the effects of anticancer agents against cell proliferation can be quantitatively compared. Thus, in order to measure the cytotoxicity of samples, MTT assay was performed using CellTiter 96 Non-radioactive Cell Proliferation Assay Kit (Promega).\nCells in a cell suspension were counted with a hematocytometer, and then 200 μL of the cell suspension was added to each well of a 96 well plate at a desired concentration (cell amount determined depending on a cell line). After cell seeding, the cells were incubated in a CO2 incubator at 37° C. overnight. After one day of cell stabilization, the cells were treated with desired concentrations of the compounds. The cells were incubated in a CO2 incubator at 37° C. for 3 days, and then the sample was removed, and 200 μL of MTT solution was added to each well. After 2 hours of incubation, the MTT dilution was carefully shaken, and 200 μL of DMSO was added to each well, followed by shaking with a plate shaker for 60 minutes.", "units": {"IC50": "nM"}, "values": [
      {"compound": "O=C(Nc1c(F)ccc(Nc2ncccc2-c2ncnc3[nH]cnc23)c1F)c1cccc(C(F)(F)F)c1", "note": "[Example 72, N-2,6-Difluoro-3-[3-(9H-Purin-6-Yl)Pyridin-2-Ylamino)Phenyl-3-Trifluoromethylbenzamide]", "IC50": 1270},
      {"compound": "O=C(Nc1cccc(C(F)(F)F)c1)c1cc(Nc2ncccc2-c2ncnc3[nH]cnc23)ccc1F", "note": "[Example 73, 2-Fluoro-5-[3-(9H-Purin-6-Yl)Pyridin-2-Ylamino]-N-(3-Trifluoromethylphenyl)Benzamide]", "IC50": 80},
      {"compound": "O=C(Nc1ccc(Cl)c(C(F)(F)F)c1)Nc1cc(Nc2ncccc2-c2ncnc3[nH]cnc23)ccc1F", "note": "[Example 74, 1-(4-Chloro-3-Trifluoromethylphenyl)-3-2-Fluoro-5-[3-(9H-Purin-6-Yl)Pyridin-2-Ylamino]Phenylurea]", "IC50": 68},
      {"compound": "O=C(Nc1cccc(C(F)(F)F)c1)Nc1ccc(Nc2ncccc2-c2ncnc3[nH]cnc23)c(F)c1", "note": "[Example 75, 1-3-Fluoro-4-[3-(9H-Purin-6-Yl)Pyridin-2-Ylamino]Phenyl-3-(3-Trifluoromethylphenyl)Urea]", "IC50": "> 10000"},
      {"compound": "O=C(Cc1cccc(C(F)(F)F)c1)Nc1cc(Nc2ncccc2-c2ncnc3[nH]cnc23)ccc1F", "note": "[Example 76, N-2-Fluoro-5-[3-(9H-Purin-6-Yl)Pyridin-2-Ylamino]Phenyl-2-(3-Trifluoromethylphenyl)Acetamide]", "IC50": 426},
      {"compound": "N#CCc1cccc(NC(=O)c2ccc(F)c(Nc3ncccc3-c3ncnc4[nH]cnc34)c2)c1", "note": "[Example 77, N-(3-Cyanomethylphenyl)-4-Fluoro-3-[3-(9H-Purin-6-Yl)Pyridin-2-Ylamino]Benzamide]", "IC50": 145000},
      {"compound": "N#CCc1ccc(C(=O)Nc2ccc(Nc3ncccc3-c3ncnc4[nH]cnc34)c(F)c2)cc1", "note": "[Example 78, N-4-[(3-(9H-Purin-6-Yl)Pyridin-2-Yl)Amino]-3-Fluorophenyl-4-(Cyanomethyl)Benzamide]", "IC50": 137},
      {"compound": "O=C(Nc1ccc(Nc2ncccc2-c2ncnc3[nH]cnc23)cc1)c1cccc(C(F)(F)F)c1", "note": "[Example 79, N-4-[3-(9H-Purin-6-Yl)Pyridin-2-Ylamino]Phenyl-3-Trifluoromethylbenzamide]", "IC50": "> 10000"},
      {"compound": "COc1cc(Nc2ncccc2-c2ncnc3[nH]cnc23)ccc1NC(=O)c1cccc(C(F)(F)F)c1", "note": "[Example 80, N-2-Methoxy-4-[3-(9H-Purin-6-Yl)Pyridin-2-Ylamino]Phenyl-3-Trifluoromethylbenzamide]", "IC50": "> 10000"},
      {"compound": "O=C(Nc1ccc(F)c(Nc2ncccc2-c2ncnc3[nH]cnc23)c1F)N1CCN(c2ccc(F)cc2)C1=O", "note": "[Example 81, N-(3-(3-(9H-purin-6-yl)pyridin-2-ylamino)-2,4-difluorophenyl)-3-(4-fluorophenyl)-2-oxoimidazolidine-1-carboxamide]", "IC50": 388},
      {"compound": "CC(C)(C#N)c1cccc(C(=O)Nc2cc(Nc3ncccc3-c3ncnc4[nH]ccc34)c(F)cc2F)c1", "note": "[Example 84, N-(5-(3-(7H-Pyrrolo[2,3-d]Pyrimidin-4-Yl)Pyridin-2-Ylamino)-2,4-Diflurophenyl)-3-(2-Cyanopropan-2-Yl)Benzamide]", "IC50": 118},
      {"compound": "CC(C)(C#N)c1cccc(C(=O)Nc2ccc(F)c(Nc3ncccc3-c3ncnc4[nH]ccc34)c2F)c1", "note": "[Example 85, N-(3-(3-(7H-Pyrrolo[2,3-d]Pyrimidin-4-Yl)Pyridin-2-Ylamino)-2,4-Difluorophenyl)-3-(2-Cyanopropan-2-Yl)Benzamide]", "IC50": 676},
      {"compound": "CC(C)(C#N)c1cccc(C(=O)Nc2cccc(Nc3ncccc3-c3ncnc4[nH]ccc34)c2F)c1", "note": "[Example 86, N-(3-(3-(7H-Pyrrolo[2,3-d]Pyrimidin-4-Yl)Pyridin-2-Ylamino)-2-Fluorophenyl)-3-(2-Cyanopopan-2-Yl)Benzamide]", "IC50": "> 10000"},
      {"compound": "O=C(Nc1cc(Nc2ncccc2-c2ncnc3[nH]ccc23)ccc1F)c1cccc(C(F)(F)F)c1", "note": "[Example 87, N-2-Fluoro-5-[3-(7H-Pyrrolo[2,3-d]Pyrimidin-4-Yl)Pyridin-2-Ylamino]Phenyl-3-Trifluoromethyl Benzamide]", "IC50": 2180},
      {"compound": "O=C(Nc1cc(Nc2ncccc2-c2ncnc3[nH]ccc23)ccc1F)c1cc(F)cc(C(F)(F)F)c1", "note": "[Example 88, 3-Fluoro-N-2-Fluoro-5-[3-(7H-Pyrrolo[2,3-d]Pyrimidin-4-Yl)Pyridin-2-Ylamino]Phenyl-5-Trifluoromethyl Benzamide]", "IC50": 609},
      {"compound": "CC(C)(C#N)c1cccc(C(=O)Nc2cc(Nc3ncccc3-c3ncnc4[nH]ccc34)ccc2F)c1", "note": "[Example 91, 3-(2-Cyanopropan-2-Yl)-N-2-Fluoro-5-[3-(7H-Pyrrolo[2,3-d]Pyrimidin-4-Yl)Pyridin-2-Ylamino]Phenyl Benzamide]", "IC50": 1120},
      {"compound": "CC(C)(C#N)c1cc(F)cc(C(=O)Nc2cc(Nc3ncccc3-c3ncnc4[nH]ccc34)ccc2F)c1", "note": "[Example 92, 3-(2-Cyanopropan-2-Yl)-5-Fluoro-N-2-Fluoro-5-[3-(7H-Pyrrolo[2,3-d]Pyrimidin-4-Yl)Pyridin-2-Ylamino]Phenyl Benzamide]", "IC50": 1510},
      {"compound": "O=C(Nc1cc(Nc2ncccc2-c2ncnc3[nH]cnc23)ccc1F)c1ccc(F)c(C(F)(F)F)c1", "note": "[Example 111, N-5-[(3-(9H-Purin-6-Yl)Pyridin-2-Yl)Amino]-2-Fluorophenyl-4-Fluoro-3-(Trifluoromethyl)Benzamide]", "IC50": 300},
      {"compound": "CC(C)(C#N)c1cccc(NC(=O)c2cc(Nc3ncccc3-c3ncnc4[nH]cnc34)ccc2F)c1", "note": "[Example 112, 5-[3-(9H-Purin-6-Yl)Amino]-N-[3-(2-Cyanopropan-2-Yl)Phenyl]-2-Fluorobenzamide]", "IC50": "> 10000"},
      {"compound": "O=C(Nc1cc(Nc2ncccc2-c2ncnc3[nH]cnc23)ccc1F)c1cccc(F)c1", "note": "[Example 113, N-5-[(3-(9H-Purin-6-Yl)Pyridin-2-Yl)Amino]-2-Fluorophenyl-3-Fluorobenzamide]", "IC50": 1480},
      {"compound": "CC(C)(C#N)c1cc(C(=O)Nc2cc(Nc3ncccc3-c3ncnc4[nH]cnc34)ccc2F)ccc1F", "note": "[Example 116, N-5-[(3-(9H-purin-6-yl)pyridin-2-yl)amino]-2-fluoropheny-3-(2-cyanopropan-2-yl)-4-fluorobenzamide]", "IC50": 587},
      {"compound": "CC(C)(C#N)c1cc(C(=O)Nc2cc(Nc3ncccc3-c3ncnc4[nH]cnc34)ccc2F)ccc1Cl", "note": "[Example 117, N-5-[(3-(9H-purin-6-yl)pyridin-2-yl)amino]-2-fluorophenyl-4-chloro-3-(2-cyanopropan-2-yl)benzamide]", "IC50": 868},
      {"compound": "O=C(Nc1cccc(C(F)(F)F)c1)Nc1cc(Nc2ncccc2-c2ncnc3[nH]cnc23)ccc1F", "note": "[Example 118, 1-5-[(3-(9H-purin-6-yl)pyridin-2-yl)amino]-2-fluorophenyl-3-[3-(trifluoromethyl)phenyl]urea]", "IC50": 153},
      {"compound": "CC(C)(C#N)c1cccc(C(=O)Nc2cc(Nc3ncccc3-c3ncnc4[nH]cnc34)ccc2F)n1", "note": "[Example 119, N-5-[(3-(9H-purin-6-yl)pyridin-2-yl)amino]-2-fluorophenyl-6-(2-cyanopropan-2-yl)picolinamide]", "IC50": "> 10000"},
      {"compound": "O=C(Nc1cc(Nc2ncccc2-c2ncnc3[nH]cnc23)ccc1F)c1cc(C(F)(F)F)ccc1F", "note": "[Example 120, N-5-[(3-(9H-purin-6-yl)pyridin-2-yl)amino]-2-fluorophenyl-2-fluoro-5-(trifluoromethyl)benzamide]", "IC50": 3380},
      {"compound": "O=C(Nc1cc(Nc2ncccc2-c2ncnc3[nH]cnc23)ccc1F)c1cccc(C(F)(F)F)c1F", "note": "[Example 121, N-5-[(3-(9H-purin-6-yl)pyridin-2-yl)amino]-2-fluorophenyl-2-fluoro-3-(trifluoromethyl)benzamide]", "IC50": 304},
      {"compound": "O=C(Nc1cccc(Nc2ncccc2-c2ncnc3[nH]cnc23)c1F)c1cccc(C(F)(F)F)c1", "note": "[Example 122, N-3-[(3-(9H-purin-6-yl)pyridin-2-yl)amino]-2-fluorophenyl-3-(trifluoromethyl)benzamide]", "IC50": 6580},
      {"compound": "O=C(Nc1ccc(C(F)(F)F)cc1)Nc1cc(Nc2ncccc2-c2ncnc3[nH]cnc23)ccc1F", "note": "[Example 123, 1-5-[(3-(9H-purin-6-yl)pyridin-2-yl)amino]-2-fluorophenyl-3-[4-(trifluoromethyl)phenyl]urea]", "IC50": 392},
      {"compound": "O=C(Nc1cc(Nc2ncccc2-c2ncnc3[nH]cnc23)ccc1Cl)c1cc(C(F)(F)F)cc(C(F)(F)F)c1", "note": "[Example 124, N-5-[(3-(9H-purin-6-yl)pyridin-2-yl)amino]-2-chlorophenyl-3,5-bis(trifluoromethyl)benzamide]", "IC50": 888},
      {"compound": "CSc1cccc(C(=O)Nc2cc(Nc3ncccc3-c3ncnc4[nH]cnc34)ccc2F)c1", "note": "[Example 125, N-5-[(3-(9H-purin-6-yl)pyridin-2-yl)amino]-2-fluorophenyl-3-(methylthio)benzamide]", "IC50": 767},
      {"compound": "CS(=O)(=O)c1cccc(C(=O)Nc2cc(Nc3ncccc3-c3ncnc4[nH]cnc34)ccc2F)c1", "note": "[Example 126, N-5-[(3-(9H-purin-6-yl)pyridin-2-yl)amino]-2-fluorophenyl-3-(methylsulfonyl)benzamide]", "IC50": 1110},
      {"compound": "CC(C)(C#N)c1cc(F)cc(C(=O)Nc2cc(Nc3ncccc3-c3ncnc4[nH]cnc34)ccc2Cl)c1", "note": "[Example 127, N-5-[(3-(9H-purin-6-yl)pyridin-2-yl)amino]-2-chlorophenyl-3-(2-cyanopropan-2-yl)-5-fluorobenzamide]", "IC50": 591}
    ]}
  ]
}
